Assay [1] addresses human mPGES-1 (Homo sapiens (Human), UniProt O14684). Kind of assay: mPGES-1 inhibiting activity (microsome fractions, PGE2 by HTRF). The format is biochemical. The following applies: microsomes from CHO-K1 cells transfected with human mPGES-1; PGH2 1 μM, 4° C., 60 seconds; read-out: mPGES-1 Inhibition IC50. The protocol:
mPGES-1 microsome fractions were prepared from CHO-K1 cells transiently transfected with plasmid encoding the human mPGES-1cDNA. Microsomes were diluted with potassium phosphate buffer containing reduced glutathione (pH7.4), and DMSO containing test compound or DMSO alone was added (such that DMSO final concentration would be 1% in each) and incubated at 4° C. for 20 minutes. Then, the enzymatic reactions were initiated by the addition of PGH2 substrate (final concentration 1 μM) and incubated at 4° C. for 60 seconds. The reaction was terminated by the addition of a citrate solution (final citrate concentration 50 mM) containing ferric chloride (final concentration 1 mg/mL). PGE2 production in the enzyme reaction aliquot was measured using HTRF kit (Cisbio International, catalogue #62P2APEC). The solution free of test compound was used as positive control, and the solution free of test compound and microsome sample was used as negative control. 100% activity was defined as PGE2 production in the positive control minus PGE2 production in negative control. IC50 value was calculated by standard method.
A general note: In TR-FRET formats the signal depends on donor and acceptor labels being close together.

Assay [2] concerns A549 cells. Kind of assay: Inhibition of PGE2 production in A549 cell (IL-1β stimulated). The class given is cell-based, human. The settings on record: Homo sapiens, A549, 24 h, IL-1β 5 ng/well, PGE2 in culture medium. As to the method: Human A549 cells were seeded onto a 96-well plate at 2×10^4 cells/100 μL per well and allowed to incubate overnight. After removing the culture medium and washing with phosphate buffered saline, the culture medium was replaced by RPMI culture medium with 3% FBS containing a DMSO solution containing test compound or DMSO alone (such that DMSO final concentration would be […] in each). After incubation for 60 minutes, IL-1β (5 ng/well) was added and incubated at 37° C. for 24 hours. Then, PGE2 in the culture medium was measured using HTRF kit (Cisbio International, catalogue #62P2APEC), and PGF2α in the culture medium was measured using EIA kit (Cayman Chemical Company, catalogue #516011). The solution free of test compound was used as positive control, and the solution free of test compound and IL-1β was used as negative control. 100% activity was defined as PGE2 and PGF2α production in the positive control minus PGE2 and PGF2α production in the negative control. IC50 value was calculated by standard method.

Counter-ions that a name gives are not always drawn.

Sequence of human mPGES-1 (O14684 whole entry): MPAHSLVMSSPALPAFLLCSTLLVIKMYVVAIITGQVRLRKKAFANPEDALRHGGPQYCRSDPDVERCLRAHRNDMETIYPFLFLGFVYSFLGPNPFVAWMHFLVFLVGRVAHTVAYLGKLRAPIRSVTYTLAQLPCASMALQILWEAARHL

As a reminder, the IC50 is the concentration that inhibits the measured activity by half. Consider `Cc1c(Cl)cccc1NC(=O)c1cc(NC(=O)c2ccccc2C(F)(F)F)cc2[nH]c([C@H]3CCC(=O)N3)nc12` [Example 131, N-(3-Chloro-2-methylphenyl)-2-[(2R)-5-oxopyrrolidin-2-yl]-6-({[2-(trifluoromethyl)phenyl]carbonyl}amino)-1H-benzimidazole-4-carboxamide hydrochloride], for which the IC50 in assay [1] is 32.8 nM; in assay [2], more than 10000 nM.
`Cc1c(Cl)cccc1NC(=O)c1cc(NC(=O)c2ccccc2C(F)(F)F)cc2c1ncn2C` [Example 46, N-(3-Chloro-2-methylphenyl)-1-methyl-6-({[2-(trifluoromethyl)phenyl]carbonyl}amino)-1H-benzimidazole-4-carboxamide]: the values for the half-maximal inhibitory concentration (IC50) in assay [1] and in assay [2] were 26 nM and 231 nM, respectively.
Consider `Cc1c(Cl)cccc1NC(=O)c1cc(NC(=O)c2cc(C#CC3CC3)ccc2Cl)cc2[nH]c(N(C)C)nc12` [Example 188, 6-({[2-Chloro-5-(cyclopropylethynyl)phenyl]carbonyl}amino)-N-(3-chloro-2-methylphenyl)-2-(dimethylamino)-1H-benzimidazole-4-carboxamide hydrochloride], for which the IC50 was determined as 457 nM in assay [1] and 1020 nM in assay [2].
Consider `COCc1nc2c(C(=O)Nc3ccccc3C)cc(NC(=O)c3ccccc3C(F)(F)F)cc2[nH]1` [Example 22, 2-(Methoxymethyl)-N-(2-methylphenyl)-6-({[2-(trifluoromethyl)phenyl]carbonyl}amino)-1H-benzimidazole-4-carboxamide hydrochloride], for which the IC50 in assay [1] was found to be 4.8 nM; in assay [2] it was 104 nM.
In the case of `Cc1c(Cl)cccc1NC(=O)c1cc(NC(=O)c2ccccc2C(F)(F)F)cc2[nH]c(CC(=O)N3CCCC3)nc12` [Example 132, N-(3-Chloro-2-methylphenyl)-2-[2-oxo-2-(pyrrolidin-1-yl)ethyl]-6-({[2-(trifluoromethyl)phenyl]carbonyl}amino)-1H-benzimidazole-4-carboxamide hydrochloride], the IC50 in assay [1] was 2.2 nM; in assay [2] it was 590 nM.
In the case of `Cc1c(Cl)cccc1NC(=O)c1cc(NC(=O)c2ccccc2C(F)(F)F)cc2[nH]c(NCCN3CCCC3)nc12` [Example 152, N-(3-Chloro-2-methylphenyl)-2-{[2-(pyrrolidin-1-yl)ethyl]amino}-6-({[2-(trifluoromethyl)phenyl]carbonyl}amino)-1H-benz imidazole-4-carboxamide hydrochloride], the figures for the IC50 in assay [1] and in assay [2] were 31.6 nM and 854 nM, respectively.
In the case of `Cc1ccc(NC(=O)c2cc(NC(=O)c3ccccc3C(F)(F)F)cc3[nH]c(N(C)C)nc23)cc1Cl` [Example 202, N-(3-Chloro-4-methylphenyl)-2-(dimethylamino)-6-({[2-(trifluoromethyl)phenyl]carbonyl}amino)-1H-benzimidazole-4-carboxamide hydrochloride], the values for the IC50 in assay [1] and in assay [2] were 4.9 nM and 5.9 nM, respectively.
Consider `Cc1c(Cl)cccc1NC(=O)c1cc(NC(=O)c2ccccc2C(F)(F)F)cc2[nH]c([C@H]3CCCN3C(=O)OC(C)(C)C)nc12` [Example 70, tert-Butyl (2R)-2-{4-[(3-chloro-2-methylphenyl)carbamoyl]-6-({[2-(trifluoromethyl)phenyl]carbonyl}amino)-1H-benzimidazol-2-yl}pyrrolidine-1-carboxylate], for which the IC50 was found to be 4.6 nM in assay [1] and 147 nM in assay [2].
As to `Cc1c(Cl)cccc1NC(=O)c1cc(NC(=O)c2ccccc2C(F)(F)F)cc2[nH]c(N)nc12` [Example 157, 2-Amino-N-(3-chloro-2-methylphenyl)-6-({[2-(trifluoromethyl)phenyl]carbonyl}amino)-1H-benzimidazole-4-carboxamide hydrochloride], the values for the half-maximal inhibitory concentration (IC50) in assay [1] and in assay [2] were 3.9 nM and 10900 nM, respectively.
The like results for `COCc1nc2c(C(=O)NCC3CCCCC3)cc(NC(=O)c3ccccc3C(F)(F)F)cc2[nH]1` [Example 218, N-(Cyclohexylmethyl)-2-(methoxymethyl)-6-({[2-(trifluoromethyl)phenyl]carbonyl}amino)-1H-benzimidazole-4-carboxamide hydrochloride] were, in that order, 5.3 nM and 42.8 nM.
The like results for `COCc1nc2c(C(=O)NCc3ccc(C)cc3)cc(NC(=O)c3ccccc3C(F)(F)F)cc2[nH]1` [Example 25, 2-(Methoxymethyl)-N-(4-methylbenzyl)-6-({[2-(trifluoromethyl)phenyl]carbonyl}amino)-1H-benzimidazole-4-carboxamide hydrochloride] were, in that order, 89 nM and 850 nM.
For the compound `COCc1nc2c(C(=O)Nc3cccc4cccnc34)cc(NC(=O)c3ccccc3C(F)(F)F)cc2[nH]1` [Example 230, 2-(Methoxymethyl)-N-(quinolin-8-yl)-6-({[2-(trifluoromethyl)phenyl]carbonyl}amino)-1H-benzimidazole-4-carboxamide hydrochloride], the IC50 turned out to be 1.9 nM in assay [1] and 100 nM in assay [2].
The like results for `Cc1c(Cl)cccc1NC(=O)c1cc(NC(=O)c2cc(Cl)ccc2Cl)cc2[nH]c(C3(C)CC3)nc12` [Example 210, N-(3-Chloro-2-methylphenyl)-6-{[(2,5-dichlorophenyl)carbonyl]amino}-2-(1-methylcyclopropyl)-1H-benzimidazole-4-carboxamide hydrochloride] were, in that order, 4.7 nM and 13.8 nM.
For the compound `Cc1c(Cl)cccc1NC(=O)c1cc(NC(=O)c2c(Cl)cccc2Cl)cc2[nH]c([C@H]3CCCO3)nc12` [Example 128, N-(3-Chloro-2-methylphenyl)-6-{[(2,6-dichlorophenyl)carbonyl]amino}-2-[(2R)-tetrahydrofuran-2-yl]-1H-benzimidazole-4-carboxamide hydrochloride], the 50% inhibitory concentration (IC50) in assay [1] stood at 1 nM; in assay [2], 253 nM.
The like results for `Cc1c(Cl)cccc1NC(=O)c1cc(NC(=O)c2ccccc2C(F)(F)F)cc2c1nc(NCC(C)(C)CO)n2C` [Example 162, N-(3-Chloro-2-methylphenyl)-2-[(3-hydroxy-2,2-dimethylpropyl)amino]-1-methyl-6-({[2-(trifluoromethyl)phenyl]carbonyl}amino)-1H-benzimidazole-4-carboxamide hydrochloride] were, in that order, 23.8 nM and 52.2 nM.
As to `Cc1c(Cl)cccc1NC(=O)c1cc(NC(=O)c2c(F)cccc2Cl)cc2[nH]c(C3CCCC3)nc12` [Example 126, 6-{[(2-Chloro-6-fluorophenyl)carbonyl]amino}-N-(3-chloro-2-methylphenyl)-2-cyclopentyl-1H-benzimidazole-4-carboxamide hydrochloride], the IC50 is 5.6 nM in assay [1] and 13.1 nM in assay [2].
The like results for `Cc1nc2c(C(=O)Nc3cccc(Cl)c3C)cc(NC(=O)c3ccccc3C(F)(F)F)cc2o1` [Example 52, N-(3-Chloro-2-methylphenyl)-2-methyl-6-({[2-(trifluoromethyl)phenyl]carbonyl}amino)-1,3-benzoxazole-4-carboxamide] were, in that order, 40.2 nM and 281 nM.
In the case of `COCC(C)(C)CNc1nc2c(C(=O)Nc3cccc(Cl)c3C)cc(NC(=O)c3ccccc3C(F)(F)F)cc2[nH]1` [Example 163, N-(3-Chloro-2-methylphenyl)-2-[(3-methoxy-2,2-dimethylpropyl)amino]-6-({[2-(trifluoromethyl)phenyl]carbonyl}amino)-1H-benzimidazole-4-carboxamide hydrochloride], the figures for the half-maximal inhibitory concentration (IC50) in assay [1] and in assay [2] were 5.9 nM and 23.2 nM, respectively.

(Values after patent US9216968B2, “Heterocyclic derivative and pharmaceutical drug” (NIPPON SHINYAKU CO., LTD., priority 2011, dated 2015).)
